From patent EP0140958B1, “ONCOLYTIC DRUG COMBINATIONS” (ELFORD, Howard L., priority 1983, dated 1984)
Structures can show the parent of a compound that is named as a salt.

What was measured:
L-1210 leukemia = L-1210 leukemia transplanted tumor in mice, life span; type: in vivo; parameters: Mean Life Span: unit not given here; details: for Percent Increase In Life Span: over controls; for increase in life span: summary of Tables I and II, drug by itself, any dose level
Experimental: In this procedure, L-1210 leukemia was maintained by weekly passage of 10^5 L-1210 cells intraperitoneally into DBA/2 mice. Diluted ascitic fluid, 0.1 ml. (10^5 cells), was administered up to female B6D2F, mice weighing about 20 g. Drugs were administered intraperitoneally to the animals. Injections containing doxorubicin were given only on day 2 and the 3,4-dihydroxybenzohydroxamic acid was given on days 2, 3 and 4.

L1210 leukemia = details: from Elford et al. and van't Riet et al. publications; cited from earlier work

With `O=C(NO)c1ccc(O)c(O)c1` [3,4-dihydroxybenzohydroxamic acid] the “Mean Life Span” value (L-1210 leukemia; Table 1, 275 Mg./Kg. intraperitoneally, days 2, 3 and 4, four mice per group) was 12.75, the “Percent Increase In Life Span” value (L-1210 leukemia; Table 1, 275 Mg./Kg. intraperitoneally, days 2, 3 and 4) was 17% and the “Percent Cures” value (L-1210 leukemia; Table 1, 275 Mg./Kg. intraperitoneally, days 2, 3 and 4, survivors calculated at day 60) was 0%. For the same compound, the “Mean Life Span” value (L-1210 leukemia; Table 1, 430 Mg./Kg. intraperitoneally, days 2, 3 and 4, four mice per group) was 13.0, the “Percent Increase In Life Span” value (L-1210 leukemia; Table 1, 430 Mg./Kg. intraperitoneally, days 2, 3 and 4) was 19% and the “Percent Cures” value (L-1210 leukemia; Table 1, 430 Mg./Kg. intraperitoneally, days 2, 3 and 4, survivors calculated at day 60) was 0%. The “Mean Life Span” value (L-1210 leukemia; Table 1, 645 Mg./Kg. intraperitoneally, days 2, 3 and 4, four mice per group) was “no better than control”, the “Mean Life Span” value (L-1210 leukemia; Table 1, 645 Mg./Kg. intraperitoneally, days 2, 3 and 4, four mice per group, listed as 3,4-dihydroxy benzohydroxamic acid) was 11.0 and the “Percent Increase In Life Span” value (L-1210 leukemia; Table 1, 645 Mg./Kg. intraperitoneally, days 2, 3 and 4) was 1%. The “Percent Cures” value (L-1210 leukemia; Table 1, 645 Mg./Kg. intraperitoneally, days 2, 3 and 4, survivors calculated at day 60) was 0%, the “Percent Increase In Life Span” value (L-1210 leukemia; Table II, 430 Mg./Kg. intraperitoneally, days 2, 3 and 4) was 32% and the “Percent Cures” value (L-1210 leukemia; Table II, 430 Mg./Kg. intraperitoneally, days 2, 3 and 4, survivors calculated on day 35) was 0%. The “Mean Life Span” value (L-1210 leukemia; Table II, 430 Mg./Kg. intraperitoneally, days 2, 3 and 4, three mice per group) was 12, the “Percent Increase In Life Span” value (L-1210 leukemia; Table II, 645 Mg./Kg. intraperitoneally, days 2, 3 and 4) was 49% and the “Percent Cures” value (L-1210 leukemia; Table II, 645 Mg./Kg. intraperitoneally, days 2, 3 and 4, survivors calculated on day 35) was 0%. The “Mean Life Span” value (L-1210 leukemia; Table II, 645 Mg./Kg. intraperitoneally, days 2, 3 and 4, three mice per group) was 13.6, the “increase in life span” value (L-1210 leukemia) was “very little increase in life span” and the “activity against L1210 leukemia” value (L1210 leukemia) was “the most active”.
In the case of `COc1cccc2c1C(=O)c1c(O)c3c(c(O)c1C2=O)C[C@@](O)(C(=O)CO)C[C@@H]3O[C@H]1C[C@H](N)[C@H](O)[C@H](C)O1` [Doxorubicin hydrochloride], the “Mean Life Span” value (L-1210 leukemia; Table 1, 6 Mg./Kg. intraperitoneally, day 2, four mice per group) is reported as 14.5, the “Percent Increase In Life Span” value (L-1210 leukemia; Table 1, 6 Mg./Kg. intraperitoneally, day 2) is reported as 33% and the “Percent Cures” value (L-1210 leukemia; Table 1, 6 Mg./Kg. intraperitoneally, day 2, survivors calculated at day 60) is reported as 0%. The “Mean Life Span” value (L-1210 leukemia; Table 1, 17 Mg./Kg. intraperitoneally, day 2, four mice per group) was 28.5, the “Percent Increase In Life Span” value (L-1210 leukemia; Table 1, 17 Mg./Kg. intraperitoneally, day 2) was 161% and the “Percent Cures” value (L-1210 leukemia; Table 1, 17 Mg./Kg. intraperitoneally, day 2, survivors calculated at day 60) was 0%. The “Mean Life Span” value (L-1210 leukemia; Table 1, 29 Mg./Kg. intraperitoneally, day 2, four mice per group) was 27.75, the “Percent Increase In Life Span” value (L-1210 leukemia; Table 1, 29 Mg./Kg. intraperitoneally, day 2) was 155% and the “Percent Cures” value (L-1210 leukemia; Table 1, 29 Mg./Kg. intraperitoneally, day 2, survivors calculated at day 60) was 0%. The “Percent Increase In Life Span” value (L-1210 leukemia; Table II, 6 Mg./Kg. intraperitoneally, day 2) was 46%, the “Percent Cures” value (L-1210 leukemia; Table II, 6 Mg./Kg. intraperitoneally, day 2, survivors calculated on day 35) was 0% and the “Mean Life Span” value (L-1210 leukemia; Table II, 6 Mg./Kg. intraperitoneally, day 2, three mice per group) was 13.3. The “Percent Increase In Life Span” value (L-1210 leukemia; Table II, 17 Mg./Kg. intraperitoneally, day 2) was 76%, the “Percent Cures” value (L-1210 leukemia; Table II, 17 Mg./Kg. intraperitoneally, day 2, survivors calculated on day 35) was 0% and the “Mean Life Span” value (L-1210 leukemia; Table II, 17 Mg./Kg. intraperitoneally, day 2, three mice per group) was 16. The “Percent Increase In Life Span” value (L-1210 leukemia; Table II, 29 Mg./Kg. intraperitoneally, day 2) was 189%, the “Percent Cures” value (L-1210 leukemia; Table II, 29 Mg./Kg. intraperitoneally, day 2, survivors calculated on day 35) was 33% and the “Mean Life Span” value (L-1210 leukemia; Table II, 29 Mg./Kg. intraperitoneally, day 2, three mice per group) was 26.3. For the same compound, the “increase in life span” value (L-1210 leukemia) was “substantial increase in life span” and the survivor (L-1210 leukemia; summary of Tables, by itself, at the highest dose level tested) was “one”.
